The source of these data is ChEMBL document CHEMBL1201862, “PubChem BioAssay data set” (2004).

As usually defined, the IC50 is the concentration that inhibits the measured activity by half. One may read the EC50 as the midpoint of the concentration-response curve. The term AC50 denotes the concentration giving half of the maximal activity seen. A word on the GI50: it is the concentration giving 50% growth inhibition.

The source made the active and inactive calls. A value given as a limit tells only on which side of the number the result lay.

One assay concerns H9c2. Kind of assay: cells. In kind it is functional, cell-based. The following applies: Rattus norvegicus, H9c2, Myocardium.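 Note: confirmatory concentration-response retest of ultra-high-throughput screening hits for modulation of myocardial damage; cell death induced by hydrogen peroxide oxidative stress; compound pretreatment for 60 min then peroxide exposure for 2 h; potency is for protecting the cells against peroxide damage rather than for killing them.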
Assay [1] is described as follows: cytotoxicity toward NIH3T3 fibroblasts, dose response, counter-screen, cell-based, ATP luminescence, mouse fibroblasts (AID 2010).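 Note: cells exposed to compound for about 90 hours before reading.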 In kind it is functional. For orientation: A counterscreen serves to expose hits that act by an unwanted route or on another target.
Assay [2] is described as follows: inhibitors of intracellular T. cruzi replication, confirmation, NIH3T3 host cells, beta-gal luminescence (AID 2044).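 Note: intracellular parasites grown in NIH/3T3 mouse fibroblasts as host cells; luminescent beta-galactosidase reporter signal from transgenic T. cruzi replicating inside host cells; inhibitors lower the luminescence signal.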 In kind it is functional, cell-based.
Assay [3] can be described thus: Luminescence Cell-Based Dose Retest to Confirm Inhibitors of Cancer Stem Cells. [Related pubchem assays (depositor defined):AID2717, AID2721]. In kind it is functional. The following applies: Homo sapiens.
The next assay can be described thus: cells. In kind it is functional.
Assay [4] in a line: Luminescence Cell-Based Dose Response HTS to Identify Inhibitors of 5'UTR Stem-Loop Driven Prion Protein mRNA Translation in H4 Neuroglioblastoma Cells. [Related pubchem assays: 1827 (Project Summary), 1813 (Primary HTS)]. In kind it is functional.
Assay [5] is described as follows: inhibitors of SNCA 5'UTR-driven reporter translation, confirmation, H4 neuroglioma cells, luminescence (AID 1988). In kind it is functional, cell-based.
The nature of assay [6]: inhibitors of firefly luciferase expression or activity, dose response, H4 neuroglioma cells, luminescence (AID 1990). In kind it is functional, cell-based.
Assay [7] in a line: HEp-2 cell cytotoxicity, dose response, cytotoxicity control for RSV inhibitor project, HTS (AID 2410). In kind it is functional. As to conditions: human respiratory syncytial virus.
In assay [8] the target is T1, Replicative DNA helicase DnaB (Mycobacterium tuberculosis, UniProt P9WMR3).
T1 sequence (P9WMR3 whole entry): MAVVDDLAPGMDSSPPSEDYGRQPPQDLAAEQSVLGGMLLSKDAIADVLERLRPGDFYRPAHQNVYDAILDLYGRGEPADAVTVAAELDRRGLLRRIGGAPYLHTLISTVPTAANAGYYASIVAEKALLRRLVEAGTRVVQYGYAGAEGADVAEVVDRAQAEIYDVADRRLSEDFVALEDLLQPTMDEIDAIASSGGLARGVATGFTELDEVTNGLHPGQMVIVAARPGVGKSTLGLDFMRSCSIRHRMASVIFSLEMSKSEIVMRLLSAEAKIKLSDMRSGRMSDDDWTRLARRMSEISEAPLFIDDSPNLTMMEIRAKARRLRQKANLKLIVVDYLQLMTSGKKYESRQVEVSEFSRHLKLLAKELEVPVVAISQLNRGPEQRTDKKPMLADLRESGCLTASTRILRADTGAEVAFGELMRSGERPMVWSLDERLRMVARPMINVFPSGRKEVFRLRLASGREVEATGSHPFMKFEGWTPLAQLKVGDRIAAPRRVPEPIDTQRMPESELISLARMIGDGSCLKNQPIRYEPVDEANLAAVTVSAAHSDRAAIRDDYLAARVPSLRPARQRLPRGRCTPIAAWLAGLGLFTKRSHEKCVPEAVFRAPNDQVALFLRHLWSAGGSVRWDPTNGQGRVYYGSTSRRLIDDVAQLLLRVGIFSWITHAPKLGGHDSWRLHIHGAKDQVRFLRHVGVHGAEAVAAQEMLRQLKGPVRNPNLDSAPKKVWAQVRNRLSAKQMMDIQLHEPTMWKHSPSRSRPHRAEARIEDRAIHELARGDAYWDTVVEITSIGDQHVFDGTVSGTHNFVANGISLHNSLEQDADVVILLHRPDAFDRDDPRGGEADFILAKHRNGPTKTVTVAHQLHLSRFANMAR
As to the kind of experiment: DnaB intein splicing inhibitors, dose response, biochemical, cell-free fluorescence (AID 449749). In kind it is functional.

Another assay addresses T2, Protein RecA (Mycobacterium tuberculosis, UniProt P9WHJ3).
T2 sequence (P9WHJ3 whole entry): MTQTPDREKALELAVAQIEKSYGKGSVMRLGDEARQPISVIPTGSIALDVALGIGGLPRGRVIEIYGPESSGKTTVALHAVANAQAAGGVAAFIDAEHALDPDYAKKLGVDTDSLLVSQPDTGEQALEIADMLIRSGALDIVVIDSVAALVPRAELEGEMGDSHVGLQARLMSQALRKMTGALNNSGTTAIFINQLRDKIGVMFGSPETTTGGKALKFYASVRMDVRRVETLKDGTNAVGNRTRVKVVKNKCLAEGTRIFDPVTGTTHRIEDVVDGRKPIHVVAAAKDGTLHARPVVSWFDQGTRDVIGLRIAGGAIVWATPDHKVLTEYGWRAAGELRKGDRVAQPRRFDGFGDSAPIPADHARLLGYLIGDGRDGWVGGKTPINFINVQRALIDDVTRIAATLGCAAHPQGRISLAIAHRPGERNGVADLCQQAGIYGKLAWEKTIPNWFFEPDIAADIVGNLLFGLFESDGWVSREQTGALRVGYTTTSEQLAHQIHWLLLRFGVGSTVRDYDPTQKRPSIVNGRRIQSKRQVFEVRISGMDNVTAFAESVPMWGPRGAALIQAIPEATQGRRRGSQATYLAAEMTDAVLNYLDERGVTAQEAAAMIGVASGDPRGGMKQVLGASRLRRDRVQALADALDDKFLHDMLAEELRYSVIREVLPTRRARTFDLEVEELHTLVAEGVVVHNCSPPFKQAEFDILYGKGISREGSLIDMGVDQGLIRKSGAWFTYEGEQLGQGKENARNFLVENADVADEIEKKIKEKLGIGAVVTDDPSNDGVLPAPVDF
Kind of assay: Fluorescence Cell-Free Homogeneous Dose Retest to Identify Inhibitors of RecA-Intein Splicing Activity. [Related pubchem assays (depositor defined):AID2097, AID2223, AID489010, AID492950]. In kind it is functional.

The subject of another assay is Streptococcus. Kind of assay: Group A Streptococcus viability loss, dose response, counter-screen for streptokinase expression inhibitor project, luminescence, BacTiterGlo (AID 1915).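 Note: potency for reduction of bacterial viability or growth.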 In kind it is functional, organism-based.
The target of another assay is T3, Streptokinase A (Streptococcus pyogenes serotype M1, UniProt P10520).
T3 sequence (P10520 whole entry): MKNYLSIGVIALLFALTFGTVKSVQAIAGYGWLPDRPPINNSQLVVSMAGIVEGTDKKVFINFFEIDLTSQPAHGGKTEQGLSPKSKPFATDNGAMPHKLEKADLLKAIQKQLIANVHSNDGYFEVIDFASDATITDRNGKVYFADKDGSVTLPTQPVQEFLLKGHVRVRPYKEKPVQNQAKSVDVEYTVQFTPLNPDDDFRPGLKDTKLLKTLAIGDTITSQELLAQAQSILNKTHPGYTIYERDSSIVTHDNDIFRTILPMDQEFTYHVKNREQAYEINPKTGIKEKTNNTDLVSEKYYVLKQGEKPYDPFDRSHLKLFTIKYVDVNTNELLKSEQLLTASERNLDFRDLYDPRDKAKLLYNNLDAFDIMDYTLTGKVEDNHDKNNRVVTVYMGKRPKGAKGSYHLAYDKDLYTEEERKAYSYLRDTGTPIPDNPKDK
As to the kind of experiment: S. pyogenes streptokinase expression inhibitors, potency, dose response, plasminogen activation absorbance, OD405 (AID 1914).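 Note: secreted streptokinase activity via plasminogen activation per viability signal from cell pellet.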 In kind it is functional, Streptococcus pyogenes M1 GAS.

The test system of assay [9] is Streptococcus sp. 'group A'. Kind of assay: growth inhibition of control SK(-) GAS strain, dose response, counter-screen for streptokinase expression inhibitor project, luminescence, kanamycin, BacTiterGlo, confirmation (AID 1900). In kind it is functional, organism-based.
Assay [10] in a line: C. albicans growth with fluconazole, confirmation, fluorescence, retest (AID 2467). In kind it is functional, cell-based.
A short description of assay [11]: microbe, parasite or virus in culture. In kind it is functional. As to conditions: Mycobacterium tuberculosis.
A further assay concerns P388. As to the kind of experiment: cells. In kind it is functional.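 Note: compound exposure lasted 48 hours before growth was measured.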
In the next assay the test system is SN12K1. As to the kind of experiment: cells. In kind it is functional.
Assay [12] in a line: P. falciparum Dd2 growth inhibitors, dose response, SYBR Green, cherry-picked samples (AID 1159567). In kind it is functional, cell-based.

Consider `CC(C)NC(=O)COC(=O)Cn1[nH]c(=O)c2ccccc2c1=O`, for which, in the assay with H9c2, the IC50 is 16.4 µM (active).
On to `CC1Cc2ccccc2N1C(=O)COC(=O)c1nnc(O)c2ccccc12` (configuration not stated), for which the IC50 in the assay with H9c2 was > 79 µM (inactive).
In the case of `COc1ccc(C(=O)Nc2nc(-c3ccccn3)cs2)cc1S(=O)(=O)N1CCOCC1`, the IC50 in the assay with H9c2 is 10.9 µM (active).
In the case of `CC1(C)CC2C1CCC1(O)CC2(C)CCC1N(O)c1ccc(C(=O)NCCO)cn1` (configuration not stated), in the assay with H9c2, the IC50 was > 79 µM (inactive).
Consider `CCOc1cc(CNc2ccc(Br)cc2)cc(Br)c1OCC(=O)NC(C)(C)C`, for which the values for the EC50 in assay [1] and in assay [2] were 37.3 µM (active) and 1.91 µM (active), respectively. Also, the AC50 in assay [3] is 31.6 µM (active).
As for `COc1ccc(OC(=O)CCc2c[nH]c3ccccc23)cc1`, the IC50 in the assay “cells” is 0.48 µM (active).
`C=CCn1c(SCc2c(C)noc2C)nc2sc3c(c2c1=O)CCCCC3`: the EC50 is 14.8 µM (active) in assay [4], 15.1 µM (active) in [5] and 14.7 µM (active) in assay [6]. Besides, the AC50 in [3] is 0.856 µM (active).
As for `S=C(Nc1ccccc1Cl)N1CCCC(c2ccccc2)=N1`, in [7], the CC50 was 25.1 µM (active). Further, the AC50 in [3] was 4.35 µM (active).
Consider `Cc1nccn1-c1c([N+](=O)[O-])c(=O)n(C)c2ccccc12`, for which, in [8], the AC50 was 29 µM (active). The EC50 on Protein RecA was 12.2 µM (active).
With `NC(=O)CC(NC(=O)Cc1ccc(Br)cc1)c1ccc(N2CCN(c3ccccc3)CC2)c([N+](=O)[O-])c1` (configuration not stated), the AC50 in assay [3] is 14.4 µM (active).
For the molecule `CC1Cc2ccccc2C(=O)N1` (configuration not stated), the IC50 with H9c2 was 12.5 µM (active).
On to `Fc1ccc(-[n+]2nc(Nc3ccccc3)sc2-c2c3ccccc3cc3ccccc23)cc1`, for which the AC50 in assay [8] is > 380 µM (inactive). In addition, the EC50 is 10.6 µM (active) on Protein RecA, 9.23 µM (active) in the assay on Streptococcus, 3.22 µM (active) on Streptokinase A and 6.85 µM (active) in [9].
As to `CC(=O)Nc1cc(OC(=O)c2ccco2)cc(OC(=O)c2ccco2)c1`, the AC50 in [8] is 1.77 µM (active). Besides, the 50% effective concentration (EC50) at Protein RecA is 1.03 µM (active).
`O=C(COc1ccccc1)Nc1nnc(-c2ccc3c(c2)CCCC3)o1`: the EC50 in [10] was 0.499 µM (active). Also, the 50% inhibitory concentration (IC50) in “cells” is 10.3 µM (active).
Take `Clc1cccc(CNCCNCc2cccc(Cl)c2)c1`: the IC50 in the assay “cells” is 20.5 µM (active).
Turning to `Cc1cc(C)nc(NC(=O)c2ccc(COc3ccccc3Cl)cc2)c1`, the AC50 in [3] was 0.245 µM (active).
Take `COc1ccc(-c2c(C#N)c(SCC(=O)c3cc4ccccc4oc3=O)nc(C)c2C(=O)Nc2ccccc2)cc1`: in assay [3], the AC50 was 0.738 µM (active). Moreover, in assay [11], the CC50 was 5.32 µM (active).
Regarding `CCOC(=O)C(C)Oc1ccc(OCc2ccccc2)cc1` (configuration not stated), the half-maximal inhibitory concentration (IC50) in “cells” is 6.32 µM (active).
In the case of `O=C(COc1cccc2c1CCNC2=O)NC1CCCCC1`, the IC50 with H9c2 was > 79 µM (inactive).
Consider `COc1ccccc1-c1sc2ccccc2c1C#CC1(O)CCCCC1`, for which the AC50 in assay [3] was 5.11 µM (active).
With `O=C(COc1cccc(F)c1)Nc1nc(-c2ccccn2)cs1`, in the assay with H9c2, the IC50 is > 79 µM (inactive).
For the molecule `Cc1c(/C=N/NC(=O)c2ccc(O)cc2)c2ccccn2c1C(=O)c1ccc(F)cc1`, the IC50 in the assay with H9c2 is > 79 µM (inactive).
Turning to `O=C(N/N=C/C(Br)=C/c1ccccc1)c1cnccn1`, in “cells”, the 50% inhibitory concentration (IC50) is 31.1 µM (active).
`C[n+]1ccc(Nc2ccc(NC(=O)c3ccc(Nc4cc[n+](C)c5ccc([N+](=O)[O-])cc45)cc3[N+](=O)[O-])cc2)cc1`: the results for the 50% growth inhibitory concentration (GI50) in the assay with P388 and with SN12K1 were 0.617 µM (active) and 23.4 µM (inactive), respectively.
Turning to `CCCNC(=O)N1[C@@H](C#N)[C@H](c2ccccc2-c2ccccc2F)[C@@H]1CO`, the AC50 in assay [12] was 18.8 µM (active).
Regarding `COc1ccc2c3c([nH]c2c1)[C@@H](CO)N(Cc1cccc(Cl)c1)CC31CCN(C(C)=O)CC1`, the concentration at half-maximal activity (AC50) in assay [12] is 3.22 µM (active).
Same read-out and setting: the same measure for `CN1CCN(C(=O)C[C@H]2C[C@@H]3c4cc(NC(=O)Nc5ccc(C(F)(F)F)cc5)ccc4O[C@@H]3[C@@H](CO)O2)CC1`: 5.16 µM (active).
